Results published in patent US20190185439A1, “RADIOFLUORINATED CARBOXIMIDAMIDES AS IDO TARGETING PET TRACER FOR CANCER IMAGING” (H. LEE MOFFITT CANCER CENTER & RESEARCH INSTITUTE, INC., priority 2016, published 2019).
Each block holds one compound with its values, some of them ahead of it.

How the values were obtained:
[1] = in vivo; cited from earlier work
Human IDO = molecular target: T1, Human IDO (Homo sapiens, UniProt P14902); assay: IDO enzyme assay; type: biochemical; conditions: enzyme activity remaining at different inhibitor concentrations
T1 construct: purchased enzolifesciences ALX-201-333-C050
T1 sequence (P14902 whole entry): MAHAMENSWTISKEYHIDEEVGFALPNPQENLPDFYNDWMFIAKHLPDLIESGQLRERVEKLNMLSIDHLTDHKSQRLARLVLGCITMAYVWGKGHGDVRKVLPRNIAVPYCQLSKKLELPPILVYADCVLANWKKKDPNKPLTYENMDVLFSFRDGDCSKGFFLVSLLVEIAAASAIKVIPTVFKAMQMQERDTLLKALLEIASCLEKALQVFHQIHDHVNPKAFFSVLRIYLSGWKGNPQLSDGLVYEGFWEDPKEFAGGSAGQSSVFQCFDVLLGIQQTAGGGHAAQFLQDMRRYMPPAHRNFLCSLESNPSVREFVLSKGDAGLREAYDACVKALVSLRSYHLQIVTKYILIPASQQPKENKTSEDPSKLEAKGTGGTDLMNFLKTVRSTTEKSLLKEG
Experimental: The assays were performed at room temperature as described as literature reported with minor revision. […] In each well of 96 well-plate, 10 μL of Human IDO (0.05 mg/mL in KHPO4, 50 mM, PH 6.5) was added into 39 μL buffers (KHPO4, 50 mM, PH 6.5) and 1 μL inhibitor buffer in DMSO (2000, 600, 200, 60, 20, 6, 2, 0.6, 0.2 μM). Then, 50 μL the substrate buffer (4 mM L-tryptophan, 40 mM ascorbate, 20 μM methylene blue, 0.2 mg/mL catalase) was mixed into each well and incubated at 37° C. for 2 hours. Then, 10 μL of 6.1N trichloroacetic acid was mixed into each well and incubated at 52° C. for 30 min to hydrolyze N-formylkynurenine produced by IDO to kynurenine. The reaction mixture was incubated with 100 μL of 0.02 g/mL p-(dimethylamino)benzaldehyde in acetic acid at room temperature for 10 minutes. […] L-Kynurenine used as the standard, was prepared in a series of concentrations (1000, 500, 200, 100, 50, 20, 10 μM). The percent inhibition at individual concentrations was determined and the average values of duplicates were obtained. The data was processed using nonlinear regression to generate IC50 values (Prism Graphpad).

[2] = molecular target: T2, IDO in IFN-γ induced HeLa cells (Homo sapiens, UniProt P14902); assay: IDO Hela cells assay (kynurenine formation); type: cell-based; conditions: for IFN-γ induced IDO activity in HeLa cell lines inhibited by IDO inhibitors: FIG. 2
T2 construct: native IDO in HeLa cells; endogenous in cells; host or cells: HeLa cells stimulated with human IFN-γ
T2 sequence (P14902 whole entry): as above
Experimental: Hela cells assay was carried out according to the reference (Takikawa, O., et al. (1988). “Mechanism of interferon-gamma action. Characterization of indoleamine 2,3-dioxygenase in cultured human cells induced by interferon-gamma and evaluation of the enzyme-mediated tryptophan degradation in its anticellular activity.” J Biol Chem 263(4):2041-2048; Yue, E. W., et al. (2009). “Discovery of potent competitive inhibitors of indoleamine 2,3-dioxygenase with in vivo pharmacodynamic activity and efficacy in a mouse melanoma model.” J Med Chem 52(23): 7364-7367) with minor modification. HeLa cells were routinely maintained in Earle's Minimum Essential Medium (EMEM) (ATCC 30-2003) and 10% fetal bovine serum. Cells were kept at 37° C. in a humidified incubator supplied with 5% CO2. The assay was performed as follows: HeLa cells were seeded in a 96 well culture plate at a density of 5×10^3 per well in 100 μL culture media. After grown overnight (16 h), human IFN-γ (50 ng/mL final concentration) and serial dilutions of compounds in 100 μL culture medium per well were added into cells. After an additional 48 hours of incubation, 140 μL of the supernatant per well was transferred to a new 96 well plate. Ten microliters of 6.1 N trichloroacetic acid were mixed into each well and incubated at 50° C. for 30 min to hydrolyze N-formylkynurenine produced by IDO to kynurenine. The reaction mixture was then centrifuged for 10 min at 2500 rpm to remove sediments. One hundred microliters of the supernatant per well were transferred to another 96 well plate and mixed with 100 μL of 2% (w/v) p-dimethylaminobenzaldehyde in acetic acid. The yellow color derived from kynurenine was measured at 492 nm using a SPECTRAmax 250 microplate reader. L-Kynurenine, used as the standard, was prepared in a series of concentrations (200, 100, 50, […], 12.5, 6.3, 3.2, 1.6 μM) in 100 μL HeLa cell culture media and analyzed in the same procedure. The percent inhibition at individual concentrations was determined and the average values of duplicates were obtained. The data was processed using nonlinear regression to generate IC50 values (Prism Graphpad).

[3] = tested on: IFN-γ stimulated HeLa cells; assay: Hela cell uptake of radioligands; type: cell-based, human
Experimental: HeLa cells were seeded in a 24 well culture plate at a density of 2×10^4 per well in 400 μL culture media w/FBS. After grown overnight (16 h), human IFN-γ (25 ng/well, 50 ng/mL final concentration) in 100 μL DMEM w/FBS were added into cells. The cells were rinsed with phosphate-buffered saline (PBS), and 500 μL of Earle's Minimum Essential Medium (EMEM) (ATCC 30-2003) and 10% fetal bovine serum was added to the culture wells. […] At each given time point, the cell supernatants were discard and wash the cells with PBS (0.5 mL) 3 times, the cells were subsequently lysed with 150 μL of trypsin-EDTA in each well and incubated for 5 min at 37° C., then collect the cell digestion solution and add another 150 μL of PBS into each well to collect the cells. All measurements were performed with a γ-counter (Wizard; PerkinElmer).
HeLa, PANCO2,HCT116 and 4T1 cells were selected and those cells were then cultured in the absence or presence of IFN-γ as described followed by Western Blotting to confirm IDO expression.

[4] = Lipophilicity determination (shake-flask, n-octanol/PBS pH 7.4); type: physicochemical; conditions: n-octanol/buffer pH 7.4, shake-flask
Experimental: [^18F]IDO49 (2-30 kBq in 30 μL of water) was added to a two-layer system of n-octanol (500 μL) and 0.1M phosphate buffered saline (PBS) pH 7.4 (500 μL) in an eppendorf vial. The vessel was vortexed for 3 min and then centrifuged at 10000 rpm for 2 min. An aliquot of each layer (100 μL) was assessed for radioactivity in a wiper counter. The partition coefficient (logD7.4) was calculated as the decimal logarithm of the ratio between the counted radioactivity in the n-octanol layer and the counted radioactivity in the aqueous layer. logD7.4=(Count of n-octanol sample−Count of background)/(Count of PBS sample−Count of background). CLogP (calculated LogP) values were determined using CHEMBIODRAW ULTRA 12.0 software (Cambridge soft. Perkin-Elmer, Waltham, Mass., USA).
LogD (n-octanol/buffer pH 7.4 partition coefficient) of [^18F]IDO49 was measured using the shake-flask method and the calculated LogP (cLogP, n-octanol/water partition coefficient) was determined using CHEMBIODRAW software.

[5] = molecular target: T3, IDO in IFN-γ stimulated HeLa cells (Homo sapiens, UniProt P14902); assay: Competitive cell-binding assay; type: cell-based; conditions: blocking with INCB024360 and NLG919, FIG. 8
T3 construct: native IDO in HeLa cells; endogenous in cells; host or cells: HeLa cells stimulated with human IFN-γ
T3 sequence (P14902 whole entry): as above
Experimental: All measurements were performed with a γ-counter (Wizard; PerkinElmer). The specificities of radioligands were determined as percentage.

Hela tumor xenografts = assay: MicroPET imaging of Hela tumor xenografts; type: in vivo, mice; conditions: for tracer accumulation in tumor: PET
Experimental: Female athymic C57BL/6 nude mice (4-6 weeks old) were ordered from Charles River Laboratories (Stone Ridge, N.Y., U.S.A.) and housed in a temperature and humidity controlled room. After 7 to 14 days of acclimatization, a total of 5×10^6 Hela cells were inoculated subcutaneously in 200 μL serum-free medium into the right flank of hind leg. Once tumors reach an appropriate size (3-4 mm in diameter) the mice were randomized into 5 groups (4/group). Then the mice in every group were randomized into two subgroups (rHu IFN-γ treatment or no rHu IFN-γ treatment). All the rHu IFN-γ treatment mice were injected i.p. of 1.5×10^5 U rHu IFN-γ/mouse/day. 24 h later, group one of mice were anesthetized by gas inhalation (2% vol/vol isoflurane in oxygen), then mice were euthanized and tumor tissues were dissected for further IDO western blotting and IHC in vitro. The same operation can be repeated at 48 h, 72 h, 96 h and 120 h points.
In order to evaluate the in vivo imaging performance of [^18F]IDO49 to IDO tumors, microPET imaging was performed on nude mice bearing Hela tumor xenografts both rHu IFN-γ treatment and none rHu IFN-γ treatment using the Inveon small-animal PET/CT scanner (Siemens). Anesthesia was induced with 4-5% isoflurane and maintained with 1-3% isofluorane delivered with a mixed air/oxygen through a closed nose cone throughout the PET imaging session. Mice bearing Hela tumor xenografts with rHu IFN-γ treatment were injected with 3.70-7.40 MBq (100-200 μCi) of [^18F]IDO49 in 200 μL of saline, and the baseline control mice with none rHu IFN-γ treatment was injected with the same radiotracer. PET data were collected for 90 min following radioligand administration and reconstructed into 38 dynamic frames of increasing length (6×10, 6×20, 4×30, 9×60, 2×180, 8×300, and 3×600 s). For a comparative study, [^11C]AMT PET imaging scan was also performed on Hela tumor mice at 60 min after intravenous injection of [^11C]AMT PET (3.7 MBq). The images were reconstructed and the regions of interest (ROIs) were drawn over the tumor and muscle, PET images were converted to percent injected dose per gram (%ID/g of tissue) for evaluation of tumor specificity. Image analysis was performed using the Inevon Research Workplace software.

[6] = IFN-γ treatment Hela tumor mice

Structure (SMILES): NS(=O)(=O)NCCNc1nonc1C(=NO)Nc1ccc(F)c(Br)c1 [INCB024360]
clearance t1/2 [1]: < 30 min

affinity of human IDO for compound (Human IDO): higher affinity
potency in HeLa cell-based assays compared with enzyme assays [2]: slightly more potent
IFN-γ induced IDO activity in HeLa cell lines inhibited by IDO inhibitors [2]: inhibited
Structure (SMILES): Nc1nonc1C(=NO)Nc1ccc(F)c(Cl)c1 [IDO5L, 4-amino-N-(3-chloro-4-fluorophenyl)-N′-hydroxy-1,2,5-oxadiazole-3-carboximidamide, reference compound]

logD7.4 [4]: 2.13±0.11
Structure (SMILES): Nc1nonc1C(=NO)Nc1ccc([18F])c(Cl)c1 [[^18F]IDO5L, [^18F] 4-amino-N-(3-chloro-4-fluorophenyl)-N′-hydroxy-1,2,5-oxadiazole-3-carboximidamide, reference compound]
uptake in IFN-γ stimulated HeLa cells compared with other cell lines ([3]; all time points, PANCO2, HCT116, 4T1 as comparison): remarkably greater

affinity of human IDO for compound (Human IDO): higher affinity
potency in HeLa cell-based assays compared with enzyme assays [2]: slightly more potent
IFN-γ induced IDO activity in HeLa cell lines inhibited by IDO inhibitors [2]: inhibited
Structure (SMILES): ON=C(Nc1ccc(F)c(Cl)c1)c1nonc1NCCF [IDO49]

specific binding to IDO in vitro [5]: high specific binding
logD7.4 [4]: 1.37±0.02
radioactive uptake in the kidney (Hela tumor xenografts; 60 min dynamic scan): high
tumor to muscle (T/M) relative uptake ratio, peak (Hela tumor xenografts; 60 min post-injection, IFN-γ treatment Hela tumor mice): 2.29±0.05
tracer accumulation in tumor (Hela tumor xenografts; [6]): selectively accumulated
average SUV of the tumor, IFN-γ treatment vs none treatment (Hela tumor xenografts; summed images of dynamic microPET scans): higher than none treatment
Structure (SMILES): ON=C(Nc1ccc(F)c(Cl)c1)c1nonc1NCC[18F] [[^18F]IDO49]
retention in IDO expression Hela cell line ([3]; IFN-γ stimulation, different time points): retained at favorable levels

Structure (SMILES): C[C@](N)(Cc1c[nH]c2ccccc12)C(=O)O [[^11C]AMT, α-[^11C] methyl-L-tryptophan, reference compound]
tracer accumulation in tumor (Hela tumor xenografts; [6]): significant tracer accumulation

Structure (SMILES): Cn1cc(C[C@H](N)C(=O)O)c2ccccc21 [L-1-MT]
inhibition of IDO activity (cell uptake of [18F]IDO5L) ([3]; Hela cells, 120 mins, FIG. 7B): strong inhibition
